{
  "source": "patent US20220125771A1",
  "about": "“S[…], ANALOGUES THEREOF, AND METHODS USING SAME” (priority 2019, published 2022)",
  "data": [
    {"test_system": "HBsAg in HepG2.2.15 cells", "assay": "HBsAg Assay: inhibition of HBsAg in HepG2.2.15 cells (CLIA immunoassay of supernatant)", "format": "cell-based, hepatitis B virus", "conditions": "Hepatitis B virus, HepG2.2.15, 144 h, read-out: sAg EC50, μM, HepG2.2.15 cells; supernatant collected at day 6 after exposure of compounds; final DMSO 0.5%", "description": "(§1) Inhibition of HBsAg was determined in HepG2.2.15 cells. Cells were maintained in culture medium containing 10% fetal calf serum, […], Glutamine, penicillin/streptomycin. Cells were seeded in 96-well collagen-coated plate at a density of 30,000 cells/well. Serially diluted compounds were added to cells next day at the final DMSO concentration of 0.5%. Cells were incubated with compounds for 2-3 days, after which medium was removed. Fresh medium containing compounds was added to cells for additional 3-4 days. At day 6 after exposure of compounds, supernatant was collected, the HBsAg immunoassay (microplate-based chemiluminescence immunoassay kits, CLIA, Autobio Diagnosics Co., Zhengzhou, China, Catalog #CL0310-2) was used to determine the level of HBsAg according to manufactory instruction. Dose-response curves were generated and the EC50 value (effective concentrations that achieved 50% inhibitory effect) were determined using XLfit software. In addition, cells were seeded at a density of 5,000 cells/well for determination of cell viability in the presence and absence of compounds by using CellTiter-Glo reagent (Promega). Tables 1-3 show EC50 values obtained by the HBsAg assay for selected compounds.", "units": {"EC50": "µM"}, "values": [
      {"smiles": "CCOc1cccc2c1cc1n2CC(C(C)(C)C)c2c-1[nH]c(=O)c(C(=O)O)c2O", "note": "(stereo not shown) [Example 5, 5-(tert-Butyl)-11-ethoxy-4-hydroxy-2-oxo-1,2,5,6-tetrahydroindolo[1,2-h]naphthyridine-3-carboxylic Acid]", "EC50": 0.13},
      {"smiles": "CC(C)(C)C1Cn2c(nc3c(OC(F)F)cccc32)-c2[nH]c(=O)c(C(=O)O)cc21", "note": "(stereo not shown) [Example 26, 5-(tert-Butyl)-11-(difluoromethoxy)-2-oxo-1,2,5,6-tetrahydrobenzo[4,5]imidazo[1,2-h][1,7]naphthyridine-3-carboxylic Acid]", "EC50": 0.057},
      {"smiles": "CC(C)(C)C1Cc2c(cc(OC(F)F)c3c2CCCN3)-c2[nH]c(=O)c(C(=O)O)c(O)c21", "note": "(stereo not shown) [Example 9, 6-(tert-Butyl)-12-(difluoromethoxy)-7-hydroxy-9-oxo-1,2,3,4,5,6,9,10-octahydroquinolino[7,8-f]quinoline-8-carboxylic Acid]", "EC50": 0.011},
      {"smiles": "COc1[nH]c2c(c(=O)c1C(=O)O)C(C(C)(C)C)Cc1c-2cc(OC(F)F)c2ncccc12", "note": "(stereo not shown) [Example 47, 6-(tert-butyl)-12-(difluoromethoxy)-9-methoxy-7-oxo-5,6,7,10-tetrahydroquinolino[7,8-f]quinoline-8-carboxylic Acid]", "EC50": 0.14},
      {"smiles": "COc1cccc2c1cc1n2CC(C(C)(C)C)c2c-1[nH]c(=O)c(C(=O)O)c2O", "note": "(stereo not shown) [Example 4, 5-(tert-Butyl)-4-hydroxy-11-methoxy-2-oxo-1,2,5,6-tetrahydroindolo[1,2-h][1,7]naphthyridine-3-carboxylic Acid]", "EC50": 0.13},
      {"smiles": "CC(C)(C)C1Cc2c(cc(OC(F)F)c3ncccc23)-c2[nH]c(=O)c(C(=O)O)c(O)c21", "note": "(stereo not shown) [Example 29, 6-(tert-Butyl)-12-(difluoromethoxy)-7-hydroxy-9-oxo-5,6,9,10-tetrahydroquinolino[7,8-f]quinoline-8-carboxylic Acid]", "EC50": 0.001},
      {"smiles": "CC(C)(C)C1Cn2c(nc3c(OC(F)F)cccc32)-c2[nH]c(=O)c(C(=O)O)c(O)c21", "note": "(stereo not shown) [Example 25, 5-(tert-Butyl)-11-(difluoromethoxy)-4-hydroxy-2-oxo-1,2,5,6-tetrahydrobenzo[4,5]imidazo[1,2-h][1,7]naphthyridine-3-carboxylic Acid]", "EC50": 0.004},
      {"smiles": "COc1cccc2c1nc1n2CC(C(C)(C)C)c2c-1[nH]c(=O)c(C(=O)O)c2O", "note": "(stereo not shown) [Example 24, 5-(tert-Butyl)-4-hydroxy-11-methoxy-2-oxo-1,2,5,6-tetrahydrobenzo[4,5]imidazo[1,2-h][1,7]naphthyridine-3-carboxylic Acid]", "EC50": 0.02}
    ]},
    {"test_system": "HBsAg in HepG2.2.15 cells", "assay": "HBsAg Assay: inhibition of HBsAg in HepG2.2.15 cells (CLIA immunoassay of supernatant)", "format": "cell-based, hepatitis B virus", "conditions": "read-out: sAg EC50; HepG2.2.15 cells; supernatant collected at day 6 after exposure of compounds; final DMSO 0.5%", "description": "as §1", "units": {"EC50": "µM"}, "values": [
      {"smiles": "CC(C)C1Cc2cc(C(=O)O)c(=O)[nH]c2-c2nc3c(OC(F)F)cccn3c21", "note": "(single isomer, unassigned) [Example 20, 11-(Difluoromethoxy)-6-isopropyl-2-oxo-1,2,5,6-tetrahydropyrido[2′,1′:2,3]imidazo[4,5-h]quinoline-3-carboxylic Acid]", "EC50": 0.099},
      {"smiles": "CN1CCCc2c3c(cc(OC(F)F)c21)-c1[nH]c(=O)c(C(=O)O)cc1C(C(C)(C)C)C3", "note": "(single isomer, unassigned) [Example 32, 6-(tert-Butyl)-12-(difluoromethoxy)-1-methyl-9-oxo-1,2,3,4,5,6,9,10-octahydroquinolino[7,8-f]quinoline-8-carboxylic Acid]", "EC50": 0.002},
      {"smiles": "COc1cccn2c3c(nc12)-c1[nH]c(=O)c(C(=O)O)cc1C(C(C)C)C3", "note": "(single isomer, unassigned) [Example 16, 5-Isopropyl-11-methoxy-2-oxo-1,2,5,6-tetrahydropyrido[2′,1′:2,3]imidazo[4,5-h]quinoline-3-carboxylic Acid]", "EC50": 0.048},
      {"smiles": "COc1cccn2c3c(nc12)-c1[nH]c(=O)c(C(=O)O)cc1C(C(C)C)C3", "note": "(single isomer, unassigned) [Example 17, 5-Isopropyl-11-methoxy-2-oxo-1,2,5,6-tetrahydropyrido[2′,1′:2,3]imidazo[4,5-h]quinoline-3-carboxylic Acid]", "EC50": 10},
      {"smiles": "Cn1c2c(cc(C(=O)O)c1=O)C(C(C)(C)C)Cc1c-2nc(Cl)c2ccccc12", "note": "(single isomer, unassigned) [Example 45, 12-(tert-Butyl)-6-chloro-4-methyl-3-oxo-3,4,11,12-tetrahydrobenzo[c][1,10]phenanthroline-2-carboxylic Acid]", "EC50": 1},
      {"smiles": "COc1ccn2c3c(nc2c1OC)-c1c(cc(C(=O)O)c(=O)n1C)C(C(C)(C)C)C3", "note": "(single isomer, unassigned) [Example 23, 5-(tert-butyl)-10,11-dimethoxy-1-methyl-2-oxo-1,2,5,6-tetrahydropyrido[2′,1′:2,3]imidazo[4,5-h]quinoline-3-carboxylic Acid]", "EC50": 0.011},
      {"smiles": "CC(C)(C)C1Cc2c(nc3c(OC(F)F)cccn23)-c2[nH]c(=O)c(C(=O)O)cc21", "note": "(single isomer, unassigned) [Example 11, 5-(tert-Butyl)-11-(difluoromethoxy)-2-oxo-1,2,5,6-tetrahydropyrido[2′,1′:2,3]imidazo[4,5-h]quinoline-3-carboxylic Acid]", "EC50": 27},
      {"smiles": "CC(C)(C)C1Cc2c(nc3c(OC(F)F)cccn23)-c2[nH]c(=O)c(C(=O)O)cc21", "note": "(single isomer, unassigned) [Example 10, 5-(tert-Butyl)-11-(difluoromethoxy)-2-oxo-1,2,5,6-tetrahydropyrido[2′,1′:2,3]imidazo[4,5-h]quinoline-3-carboxylic Acid]", "EC50": 0.003},
      {"smiles": "CC(C)C1Cc2c(nc3c(OC(F)F)cccn23)-c2[nH]c(=O)c(C(=O)O)cc21", "note": "(single isomer, unassigned) [Example 12, 11-(Difluoromethoxy)-5-isopropyl-2-oxo-1,2,5,6-tetrahydropyrido[2′,1′:2,3]imidazo[4,5-h]quinoline-3-carboxylic Acid]", "EC50": 0.018},
      {"smiles": "CC(C)(C)C1Cc2c(cc(OC(F)F)c3ncccc23)-c2[nH]c(=O)c(C(=O)O)cc21", "note": "(single isomer, unassigned) [Example 37, 6-(tert-Butyl)-12-(difluoromethoxy)-9-oxo-5,6,9,10-tetrahydroquinolino[7,8-f]quinoline-8-carboxylic Acid]", "EC50": 0.003},
      {"smiles": "CC(C)C1Cc2c(nc3c(OC(F)F)cccn23)-c2[nH]c(=O)c(C(=O)O)cc21", "note": "(single isomer, unassigned) [Example 13, 11-(Difluoromethoxy)-5-isopropyl-2-oxo-1,2,5,6-tetrahydropyrido[2′,1′:2,3]imidazo[4,5-h]quinoline-3-carboxylic Acid]", "EC50": 1.1},
      {"smiles": "COc1ccn2c3c(nc2c1OC)-c1[nH]c(=O)c(C(=O)O)cc1C(C(C)(C)C)C3", "note": "(single isomer, unassigned) [Example 19, 5-(tert-Butyl)-10,11-dimethoxy-2-oxo-1,2,5,6-tetrahydropyrido[2′,1′:2,3]imidazo[4,5-h]quinoline-3-carboxylic Acid]", "EC50": 8},
      {"smiles": "Cn1c2c(cc(C(=O)O)c1=O)C(C(C)(C)C)Cc1c-2nc(Cl)c2ccccc12", "note": "(single isomer, unassigned) [Example 44, 12-(tert-Butyl)-6-chloro-4-methyl-3-oxo-3,4,11,12-tetrahydrobenzo[c][1,10]phenanthroline-2-carboxylic Acid]", "EC50": 0.009},
      {"smiles": "Cn1c2c(cc(C(=O)O)c1=O)C(C(C)(C)C)Cc1c-2cc(OC(F)F)c2ncccc12", "note": "(single isomer, unassigned) [Example 40, 6-(tert-Butyl)-12-(difluoromethoxy)-10-methyl-9-oxo-5,6,9,10-tetrahydroquinolino[7,8-f]quinoline-8-carboxylic Acid]", "EC50": 0.2},
      {"smiles": "COc1cccn2c3c(nc12)-c1[nH]c(=O)c(C(=O)O)cc1C(C(C)(C)C)C3", "note": "(single isomer, unassigned) [Example 15, 5-(tert-Butyl)-11-methoxy-2-oxo-1,2,5,6-tetrahydropyrido[2′,1′:2,3]imidazo[4,5-h]quinoline-3-carboxylic Acid]", "EC50": 1},
      {"smiles": "CC(C)(C)C1Cc2c(cc(OC(F)F)c3ncccc23)-c2[nH]c(=O)c(C(=O)O)cc21", "note": "(single isomer, unassigned) [Example 38, 6-(tert-butyl)-12-(difluoromethoxy)-9-oxo-5,6,9,10-tetrahydroquinolino[7,8-f]quinoline-8-carboxylic Acid]", "EC50": 3},
      {"smiles": "Cn1c2c(cc(C(=O)O)c1=O)C(C(C)(C)C)Cc1c-2cc(OC(F)F)c2ncccc12", "note": "(single isomer, unassigned) [Example 39, 6-(tert-Butyl)-12-(difluoromethoxy)-10-methyl-9-oxo-5,6,9,10-tetrahydroquinolino[7,8-f]quinoline-8-carboxylic Acid]", "EC50": 10},
      {"smiles": "COc1cccc2c1nc1n2CC(C(C)(C)C)c2cc(C(=O)O)c(=O)[nH]c2-1", "note": "(single isomer, unassigned) [Example 27, 5-(tert-Butyl)-11-methoxy-2-oxo-1,2,5,6-tetrahydrobenzo[4,5]imidazo[1,2-h][1,7]naphthyridine-3-carboxylic Acid]", "EC50": 10},
      {"smiles": "COc1cc2c(c3cccnc13)CC(C(C)(C)C)c1cc(C(=O)O)c(=O)[nH]c1-2", "note": "(single isomer, unassigned) [Example 36, 6-(tert-Butyl)-12-methoxy-9-oxo-5,6,9,10-tetrahydroquinolino[7,8-f]quinoline-8-carboxylic Acid]", "EC50": 5.2},
      {"smiles": "COc1cccn2c3c(nc12)-c1[nH]c(=O)c(C(=O)O)cc1C(C(C)(C)C)C3", "note": "(single isomer, unassigned) [Example 14, 5-(tert-Butyl)-11-methoxy-2-oxo-1,2,5,6-tetrahydropyrido[2′,1′:2,3]imidazo[4,5-h]quinoline-3-carboxylic Acid]", "EC50": 0.012}
    ]}
  ]
}
